Assay results: patent publication US20200246352A1, “Vanadyl and vanadate for use in reducing stress-induced metabolic derangement” (CFM Pharma Holding B.V., priority 2017, published 2020)
Several values for one entry are separate records, joined by “and”; a condition that tells them apart may be missing. Equal entries are not always repeated.

What was measured:
[1] = system: healthy male Wistar rats; experiment: Example 2: BMOV pre-treatment before adrenaline-induced stress hyperglycemia, blood glucose; format: in vivo, rat
Procedure: See Table 8 and Table 9 for further details.
Measurement of glucose levels was performed by DCont TREND glucometer. DCont TREND test strips (77 Elektronika, http://www.regolymedical.hu/en/measuring-tools-and-surgicalinstruments/vercukormero-d-cont-trend.html), in duplicate in order to determine blood glucose levels. See Table 9 for the blood sampling regime during the course of the experiment.

[2] = system: healthy male Wistar rats; experiment: Series 2: BMOV cumulative infusion during adrenaline (or saline) infusion, blood glucose; format: in vivo, rat
Procedure: Glucose levels were measured at t=0, 120, 140, 160, 180 and 200 min.
Blood glucose levels were measured at each time point in duplicates by directly dripping blood onto DCont TREND test strips (77 Elektronika, Budapest, Hungary). […] Blood samples were centrifuged at 4.000 rpm at 4° C. for 15 min. The prepared, separated samples derived from the centrifuged plasma (total volume 200 μl) were kept at −70° C. until shipment.

[3] = Tonogen + 1x BMOV (15 mg/kg ip 3 h before adrenaline 0.3 microgram/kg/min), 0 min
[4] = Tonogen + 1x BMOV (15 mg/kg ip 3 h before adrenaline), 30 min
[5] = Tonogen + 1x BMOV (15 mg/kg ip 3 h before adrenaline), 60 min
[6] = Tonogen + 1x BMOV (15 mg/kg ip 3 h before adrenaline), 90 min
[7] = Tonogen + 1x BMOV (15 mg/kg ip 3 h before adrenaline), 120 min
[8] = Tonogen + 1x BMOV (15 mg/kg ip 3 h before adrenaline), 150 min
[9] = Tonogen + 1x BMOV (15 mg/kg ip 3 h before adrenaline), 180 min
[10] = Tonogen + 2x BMOV (15 mg/kg ip 16-24 h and 3 h before adrenaline 0.3 microgram/kg/min), 0 min
[11] = Tonogen + 2x BMOV (15 mg/kg ip 16-24 h and 3 h before adrenaline), 30 min
[12] = Tonogen + 2x BMOV (15 mg/kg ip 16-24 h and 3 h before adrenaline), 60 min
[13] = Tonogen + 2x BMOV (15 mg/kg ip 16-24 h and 3 h before adrenaline), 90 min
[14] = Tonogen + 2x BMOV (15 mg/kg ip 16-24 h and 3 h before adrenaline), 120 min
[15] = Tonogen + 2x BMOV (15 mg/kg ip 16-24 h and 3 h before adrenaline), 150 min
[16] = Tonogen + 2x BMOV (15 mg/kg ip 16-24 h and 3 h before adrenaline), 180 min
[17] = two doses of BMOV at different time points before stress
[18] = Saline + BMOV group, 0 min, before saline and BMOV
[19] = Saline + BMOV group, 120 min of saline, before BMOV dose 1
[20] = Saline + BMOV group, 140 min, after BMOV 1 (0.34 mg/kg iv over 20 min)
[21] = Saline + BMOV group, 180 min, after BMOV 3 (2.89 mg/kg, cumulative)
[22] = Saline + BMOV group, 200 min, after BMOV 4 (8.50 mg/kg, cumulative)
[23] = Tonogen + BMOV group (adrenaline 1 μg/kg/min), 0 min, before adrenaline and BMOV
[24] = Tonogen + BMOV group, 120 min of adrenaline, before BMOV dose 1

Which “Effect of pretreatment on occurrence of hyperglycemia” value ([1]; BMOV 3 h before stress, or at 16-24 h and 3 h before stress (adrenaline infusion)) does the source give for `Cc1occc(=O)c1[O-].Cc1occc(=O)c1[O-].[O]=[V+2]` [BMOV, Bis(maltolato)oxovanadium] here?
The value was “surprisingly high reduction of the occurrence of hyperglycemia”.

And the “Blood glucose, individual animals in duplicate” value [1, 3]?
The value was 6.1 mM/l and 6.7 mM/l and 5.1 mM/l and 4.9 mM/l and 6.3 mM/l and 5.9 mM/l.

And the “Blood glucose, mean” value [1, 3]?
The value was 5.833 mM/l.

And the “Blood glucose, individual animals in duplicate” value [1, 4]?
The value was 6.9 mM/l (2×) and 5.1 mM/l and 5.9 mM/l and 7.5 mM/l and 7.2 mM/l.

What about the “Blood glucose, mean” value [1, 4] of the same compound?
Its value is 6.583 mM/l.

What about the “Blood glucose, individual animals in duplicate” value [1, 5] of the same compound?
The value was 8.4 mM/l and 8 mM/l and 6 mM/l (2×) and 9.7 mM/l and 10 mM/l.

What about the “Blood glucose, mean” value [1, 5] of the same compound?
The value was 8.017 mM/l.

And the “Blood glucose, individual animals in duplicate” value [1, 6]?
The value was 9.4 mM/l and 9.2 mM/l and 9.8 mM/l and 9.7 mM/l and 8.6 mM/l and 9 mM/l.

What about the “Blood glucose, mean” value [1, 6] of the same compound?
The value was 9.283 mM/l.

What about the “Blood glucose, individual animals in duplicate” value [1, 7] of the same compound?
Its value is 10.7 mM/l and 11.2 mM/l and 12.2 mM/l and 11.5 mM/l and 4.6 mM/l and 4.7 mM/l.

And the “Blood glucose, mean” value [1, 7]?
Its value is 9.15 mM/l.

What about the “Blood glucose, individual animals in duplicate” value [1, 8] of the same compound?
The value was 12.3 mM/l and 12.6 mM/l and 11.7 mM/l and 11.6 mM/l.

What about the “Blood glucose, mean” value [1, 8] of the same compound?
The value was 12.05 mM/l.

And the “Blood glucose, individual animals in duplicate” value [1, 9]?
Its value is 12.4 mM/l and 12.2 mM/l and 11.9 mM/l (2×).

And the “Blood glucose, mean” value [1, 9]?
Its value is 12.1 mM/l.

And the “Blood glucose, individual animals in duplicate” value [1, 10]?
The value was 5.2 mM/l (2×) and 5.4 mM/l and 4.4 mM/l and 4.3 mM/l and 5.1 mM/l and 5.8 mM/l and 4.8 mM/l.

And the “Blood glucose, mean” value [1, 10]?
Its value is 5.025 mM/l.

And the “Blood glucose, individual animals in duplicate” value [1, 11]?
The value was 5.2 mM/l and 4.8 mM/l and 5 mM/l (2×) and 5.3 mM/l (2×) and 6.3 mM/l and 6.1 mM/l.

What about the “Blood glucose, mean” value [1, 11] of the same compound?
The value was 5.375 mM/l.

What about the “Blood glucose, individual animals in duplicate” value [1, 12] of the same compound?
Its value is 5.2 mM/l and 4.4 mM/l and 4.3 mM/l and 6.3 mM/l and 6.4 mM/l and 7.1 mM/l and 7 mM/l and 5.3 mM/l.

And the “Blood glucose, mean” value [1, 12]?
Its value is 5.75 mM/l.

What about the “Blood glucose, individual animals in duplicate” value [1, 13] of the same compound?
Its value is 5.8 mM/l (2×) and 3.4 mM/l and 3.2 mM/l and 6.4 mM/l and 6.8 mM/l and 8.5 mM/l and 8.2 mM/l.

And the “Blood glucose, mean” value [1, 13]?
Its value is 6.0125 mM/l.

What about the “Blood glucose, individual animals in duplicate” value [1, 14] of the same compound?
The value was 6.7 mM/l (2×) and 2.7 mM/l and 2.6 mM/l and 7.4 mM/l and 7.7 mM/l and 9.1 mM/l and 8.6 mM/l.

What about the “Blood glucose, mean” value [1, 14] of the same compound?
The value was 6.4375 mM/l.

What about the “Blood glucose, individual animals in duplicate” value [1, 15] of the same compound?
The value was 7.4 mM/l and 1.4 mM/l and 1.3 mM/l and 7.7 mM/l (2×) and 7.9 mM/l and 7.6 mM/l and 7.5 mM/l.

And the “Blood glucose, mean” value [1, 15]?
Its value is 6.0625 mM/l.

And the “Blood glucose, individual animals in duplicate” value [1, 16]?
The value was 6.7 mM/l and 7 mM/l and 6.8 mM/l and 4.6 mM/l and 4.8 mM/l and 6.9 mM/l.

What about the “Blood glucose, mean” value [1, 16] of the same compound?
Its value is 6.133 mM/l.

What about the “Effect on occurrence of hyperglycemia during the period of stress” value ([1]; first dose 16 to 24 h and second dose 3 h prior to stress) of the same compound?
The value was “inhibited the occurrence of hyperglycemia”.

And the “Effect on extent of hyperglycemia during the period of stress” value ([1]; single dose of BMOV 3 h prior to stress)?
The value was “reduced the extent of hyperglycemia considerably”.

And the “Maximum average glucose level in the blood” value [1, 17]?
Its value is “about 6.4 mmol/l”.

What about the “Rise in blood glucose level” value [1, 17] of the same compound?
The value was at most 28%.

What about the “Effect on the increase of the glucose level” value ([2]; BMOV administered after the start of and during continued stress (adrenaline infusion)) of the same compound?
Its value is “lowers the extent of the increase of the glucose level”.

What about the “Blood glucose level, individual animal in duplicate” value [2, 18] of the same compound?
Its value is 4.7 mM/l and 4.8 mM/l.

What about the “Blood glucose level, mean” value [2, 18] of the same compound?
Its value is 4.75 mM/l.

What about the “Blood glucose level, individual animal in duplicate” value [2, 19] of the same compound?
The value was 5.7 mM/l and 5.3 mM/l.

What about the “Blood glucose level, mean” value [2, 19] of the same compound?
Its value is 5.50 mM/l.

And the “Blood glucose level, individual animal in duplicate” value [2, 20]?
The value was 6.3 mM/l.

What about the “Blood glucose level, mean” value [2, 20] of the same compound?
Its value is 6.30 mM/l.

What about the “Blood glucose level, mean” value ([2]; Saline + BMOV group, 160 min, after BMOV 2 (1.02 mg/kg, cumulative)) of the same compound?
Its value is 6.60 mM/l.

And the “Blood glucose level, individual animal in duplicate” value ([2]; Saline + BMOV group, 160 min, after BMOV 2 (1.02 mg/kg, cumulative), 1.02 mg/kg)?
The value was 6.5 mM/l and 6.7 mM/l.

And the “Blood glucose level, individual animal in duplicate” value [2, 21]?
Its value is 5.9 mM/l.

What about the “Blood glucose level, mean” value [2, 21] of the same compound?
The value was 5.90 mM/l.

And the “Blood glucose level, individual animal in duplicate” value [2, 22]?
Its value is 3.8 mM/l.

And the “Blood glucose level, mean” value [2, 22]?
Its value is 3.80 mM/l.

What about the “Blood glucose level, individual animals in duplicate” value [2, 23] of the same compound?
The value was 8.4 mM/l and 7.8 mM/l and 6.0 mM/l (2×).

And the “Blood glucose level, mean” value [2, 23]?
Its value is 7.05 mM/l.

What about the “Blood glucose level, individual animals in duplicate” value [2, 24] of the same compound?
Its value is 16.4 mM/l and 16.5 mM/l and 11.7 mM/l and 11.2 mM/l.

And the “Blood glucose level, mean” value [2, 24]?
Its value is 13.95 mM/l.

And the “Blood glucose level, mean” value ([2]; Tonogen + BMOV group, 140 min, after BMOV 1 (0.34 mg/kg iv over 20 min))?
The value was 15.55 mM/l.

What about the “Blood glucose level, individual animals in duplicate” value ([2]; Tonogen + BMOV group, 140 min, after BMOV 1 (0.34 mg/kg iv over 20 min), 0.34 mg/kg) of the same compound?
Its value is 17.9 mM/l and 17.5 mM/l and 13.5 mM/l and 13.3 mM/l.

What about the “Blood glucose level, mean” value ([2]; Tonogen + BMOV group, 160 min, after BMOV 2 (1.02 mg/kg, cumulative)) of the same compound?
The value was 15.18 mM/l.

What about the “Blood glucose level, individual animals in duplicate” value ([2]; Tonogen + BMOV group, 160 min, after BMOV 2 (1.02 mg/kg, cumulative), 1.02 mg/kg) of the same compound?
The value was 14.6 mM/l and 14.5 mM/l and 15.7 mM/l and 15.9 mM/l.

What about the “Blood glucose level, mean” value ([2]; Tonogen + BMOV group, 180 min, after BMOV 3 (2.89 mg/kg, cumulative)) of the same compound?
The value was 11.03 mM/l.

What about the “Blood glucose level, individual animals in duplicate” value ([2]; Tonogen + BMOV group, 180 min, after BMOV 3 (2.89 mg/kg, cumulative), 2.89 mg/kg) of the same compound?
The value was 7.8 mM/l and 7.9 mM/l and 14.2 mM/l (2×).

What about the “Blood glucose level, mean” value ([2]; Tonogen + BMOV group, 200 min, after BMOV 4 (8.50 mg/kg, cumulative)) of the same compound?
Its value is 7.28 mM/l.

And the “Blood glucose level, individual animals in duplicate” value ([2]; Tonogen + BMOV group, 200 min, after BMOV 4 (8.50 mg/kg, cumulative), 8.5 mg/kg)?
The value was 4.3 mM/l and 4.4 mM/l and 10.1 mM/l and 10.3 mM/l.

What about the “Effect on hyperglycemia compared to adrenaline+vehicle control group” value ([2]; adrenaline 1 μg/kg/min, at 160-180 min) of the same compound?
Its value is “significantly decreased hyperglycemia”.
